Calls of active or inactive are those of the source.

One test deals with Cytochrome P450 3A4 (Homo sapiens, UniProt P08684). Particulars: Potency.
In test [1] the target is Luciferin 4-monooxygenase (Photinus pyralis, UniProt P08659). The experiment in a line: Counter Screen for Luciferase-based Assay Positives. [Related pubchem assays: 620, 618, 411 ]. (In general: A counterscreen serves to expose hits that act by an unwanted route or on another target.)
The test system of another test is HT-1080. The experiment in a line: cytotoxicity in HT1080 fibrosarcoma cells, cell-based, fluorescence readout (AID 620). Format: functional. To be noted: Homo sapiens.
A short description of test [2]: LGR2 antagonists, dose response, cell-based, HEK293, CRE-luciferase reporter, cherry pick, set 2 (AID 743343).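 Further: transfected cells were stimulated with diluted bursicon conditioned medium after compound addition.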 It counts as functional. A general note: A reporter such as luciferase makes a cellular process visible.
Test [3] in a line: MC4R antagonists, dose response, counter-screen for LGR2 antagonist project, cell-based, plate reader, cherry pick (AID 743444).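 Further: transfected HEK 293 cells stimulated with alpha-MSH peptide; potency of inhibitors of the alpha-MSH evoked signal.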 It counts as functional.

Chain of Cytochrome P450 3A4 (P08684 whole entry): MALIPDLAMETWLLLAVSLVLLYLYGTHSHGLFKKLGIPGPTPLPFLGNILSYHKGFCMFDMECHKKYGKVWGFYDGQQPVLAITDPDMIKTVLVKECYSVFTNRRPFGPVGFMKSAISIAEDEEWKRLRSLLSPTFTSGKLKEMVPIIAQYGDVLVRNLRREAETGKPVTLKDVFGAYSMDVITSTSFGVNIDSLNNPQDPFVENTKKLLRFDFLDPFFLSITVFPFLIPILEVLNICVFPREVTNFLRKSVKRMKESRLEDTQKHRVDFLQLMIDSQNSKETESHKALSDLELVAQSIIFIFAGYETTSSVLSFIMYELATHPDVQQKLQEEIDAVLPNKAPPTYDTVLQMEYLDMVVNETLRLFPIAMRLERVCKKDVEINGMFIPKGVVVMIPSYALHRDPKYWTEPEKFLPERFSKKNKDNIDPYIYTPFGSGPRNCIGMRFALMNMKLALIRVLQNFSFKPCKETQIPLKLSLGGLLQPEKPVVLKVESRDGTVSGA
Chain of Luciferin 4-monooxygenase (P08659 whole entry): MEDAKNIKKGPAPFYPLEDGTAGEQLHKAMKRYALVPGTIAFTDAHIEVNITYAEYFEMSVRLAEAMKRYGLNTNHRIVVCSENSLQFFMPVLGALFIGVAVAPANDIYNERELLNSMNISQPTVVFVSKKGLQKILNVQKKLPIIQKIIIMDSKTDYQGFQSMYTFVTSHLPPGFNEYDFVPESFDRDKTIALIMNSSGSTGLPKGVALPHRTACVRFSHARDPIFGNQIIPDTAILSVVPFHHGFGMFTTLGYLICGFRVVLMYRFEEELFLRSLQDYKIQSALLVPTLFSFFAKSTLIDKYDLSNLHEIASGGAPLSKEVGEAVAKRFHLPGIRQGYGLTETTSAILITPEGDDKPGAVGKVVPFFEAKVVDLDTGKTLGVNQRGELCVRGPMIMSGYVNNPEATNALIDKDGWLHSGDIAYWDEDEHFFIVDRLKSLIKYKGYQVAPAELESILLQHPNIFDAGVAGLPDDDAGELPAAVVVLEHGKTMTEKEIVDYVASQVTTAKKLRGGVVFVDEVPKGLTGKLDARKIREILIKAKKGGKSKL

A word on the AC50: it is the midpoint of the concentration-response curve, whichever way the signal moves. Take `Oc1ccc(Cl)c(Cl)c1Cl`: the AC50 on Cytochrome P450 3A4 was 15.8 µM (inconclusive).
Consider `C[C@@H]1CCC2[C@](C)(CO)C(O)CC[C@@]2(C)[C@@]12CC[C@](CO)(CCO)O2` (some centres not stated), for which, on Cytochrome P450 3A4, the AC50 was 25.1 µM (inconclusive).
With `CC(C)=CCC1=C(O)C(=O)c2ccccc2C1=O` [LAPACHOL], on Cytochrome P450 3A4, the AC50 is 25.1 µM (inconclusive).
A word on the EC50: it is the concentration that produces a half-maximal response. For the compound `CCCCCc1ccc(-c2ccc(C(=O)O)cc2)nc1`, the values for the EC50 (in test [1]; in the test with HT-1080) were 43.4 µM (active) and > 50 µM (not active), respectively. For the same compound, the half-maximal activity concentration (AC50) was 13.9 µM (active) in test [2] and 14.1 µM (active) in test [3].
